The target in assay [1] is T1, Mitogen-activated protein kinase 14 (Homo sapiens, UniProt Q16539). Put plainly: Binding affinity to P38alpha MAPK (unknown origin) using Smad3 as substrate incubated for 1 hr in presence of increasing concentration of ATP by ELISA.
Assay [2] deals with T1, Mitogen-activated protein kinase 14. Nature of the assay: Binding affinity to P38alpha MAPK (unknown origin) using Smad3 as substrate incubated for 1 hr in presence of ATP by ELISA based competitive binding potency assay.
For assay [3] the target is unchanged. Nature of the assay: Binding affinity to recombinant human N-terminal GST-tagged P38alpha MAPK expressed in Escherichia coli using ERKtide as substrate by mobility shift assay.
Assay [4] shares this target. Nature of the assay: Binding affinity to P38alpha MAPK (unknown origin) using MAPKAPK2 as substrate incubated for 1 hr by ELISA.
The target is the same in assay [5]. Nature of the assay: Binding affinity to P38alpha MAPK (unknown origin) using MBP as substrate incubated for 1 hr by ELISA. Background: In an ELISA, binding on a coated surface is turned into a signal by an enzyme label.

Data on ten compounds can be found in ChEMBL document CHEMBL4819097, “Identification of an allosteric and Smad3-selective inhibitor of p38αMAPK using a substrate-based approach” (Bioorg Med Chem Lett, 2021).

Broadly, the IC50 is the concentration that inhibits the measured activity by half.

Active and inactive are the calls of the source. No cut-off for these calls is given here. Peptide text beside a SMILES is read from it. A value given as a limit tells only on which side of the number the result lay.

T1 sequence (Q16539 whole entry): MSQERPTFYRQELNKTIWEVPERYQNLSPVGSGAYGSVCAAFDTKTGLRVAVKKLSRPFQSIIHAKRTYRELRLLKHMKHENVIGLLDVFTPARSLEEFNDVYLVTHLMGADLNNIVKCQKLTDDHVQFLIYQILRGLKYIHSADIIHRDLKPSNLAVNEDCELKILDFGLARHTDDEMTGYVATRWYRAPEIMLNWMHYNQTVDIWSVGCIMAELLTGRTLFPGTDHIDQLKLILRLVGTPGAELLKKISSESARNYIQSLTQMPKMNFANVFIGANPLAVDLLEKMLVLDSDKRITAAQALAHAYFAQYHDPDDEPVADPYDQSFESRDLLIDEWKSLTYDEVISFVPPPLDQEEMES

In the case of `Oc1ccc(-c2nc(-c3ccc(F)cc3)c(-c3ccncc3)[nH]2)cc1`, the result in assay [1] was inactive. For `CC[C@H](C)[C@H](N)C(=O)N[C@@H](CCCCN)C(=O)N[C@H](C(=O)N[C@@H](CCCCN)C(=O)N[C@@H](CCCCN)C(=O)N[C@H](C(=O)N[C@@H](CCC(=O)O)C(=O)N[C@@H](CC(=O)O)C(=O)N[C@@H](C)C(=O)N[C@@H](CO)C(=O)N[C@@H](CC(N)=O)C(=O)N1CCC[C@H]1C(=O)N[C@@H](CC(C)C)C(=O)O)[C@@H](C)CC)[C@@H](C)CC` (H-IKIKKIEDASNPL-OH), the IC50 in assay [2] was more than 1000 nM. Regarding `CC[C@H](C)[C@H](N)C(=O)N[C@@H](CCCCN)C(=O)N[C@H](C(=O)N[C@@H](CCCCN)C(=O)N[C@@H](CCCCN)C(=O)N[C@H](C(=O)N[C@@H](CCC(=O)O)C(=O)N[C@@H](CC(=O)O)C(=O)N[C@@H](C)C(=O)N[C@@H](CO)C(=O)N[C@@H](CC(N)=O)C(=O)N1CCC[C@H]1C(=O)N[C@@H](CC(C)C)C(=O)N[C@@H](CC(C)C)C(=O)N[C@@H](CC(C)C)C(=O)N[C@H](C(=O)N[C@@H](CS)C(=O)N[C@@H](CCCNC(=N)N)C(=O)N[C@@H](CCCNC(=N)N)C(=O)N[C@@H](CCCNC(=N)N)C(=O)N[C@@H](CCCCN)C(=O)N[C@@H](C)C(=O)N[C@@H](CCCNC(=N)N)C(=O)N[C@@H](C)C(=O)N[C@@H](CC(C)C)C(=O)O)[C@@H](C)CC)[C@@H](C)CC)[C@@H](C)CC` (H-IKIKKIEDASNPLLLICRRRKARAL-OH), the outcome in assay [1] was Active. In addition, the IC50 in assay [3] was more than 100 µM; in assay [4], more than 1000 nM; in assay [5], more than 1000 nM; in assay [2] it was 1.3 nM.

For `CC[C@H](C)[C@H](N)C(=O)N[C@@H](CCCCN)C(=O)N[C@H](C(=O)N[C@@H](CCCCN)C(=O)N[C@@H](CCCCN)C(=O)N[C@H](C(=O)N[C@@H](CCC(=O)O)C(=O)N[C@@H](CC(=O)O)C(=O)N[C@@H](C)C(=O)N[C@@H](CO)C(=O)N[C@@H](CC(N)=O)C(=O)N1CCC[C@H]1C(=O)N[C@@H](CC(C)C)C(=O)N[C@@H](CC(C)C)C(=O)N[C@@H](CC(C)C)C(=O)N[C@@H](CCCCN)C(=O)N[C@@H](CCCNC(=N)N)C(=O)N[C@@H](CCCNC(=N)N)C(=O)NCC(=O)O)[C@@H](C)CC)[C@@H](C)CC` (H-IKIKKIEDASNPLLLKRRG-OH), the half-maximal inhibitory concentration (IC50) in assay [2] amounted to 300 nM.

As to `CC(C)C[C@H](NC(=O)[C@@H](NC(=O)[C@@H]1CCCN1C(=O)[C@@H]1CCCN1C(=O)[C@@H](N)CC(C)C)C(C)C)C(=O)N[C@H](C(=O)N1CCC[C@H]1C(=O)N[C@@H](CCCNC(=N)N)C(=O)N[C@@H](Cc1cnc[nH]1)C(=O)N[C@H](C(=O)N[C@@H](CCC(=O)O)C(=O)O)[C@@H](C)O)C(C)C` (H-LPPVLVPRHTE-OH), the half-maximal inhibitory concentration (IC50) in assay [3] is more than 100 µM; in assay [2], more than 100000 nM. On the same counts, the results for `CC[C@H](C)[C@H](NC(=O)[C@H](CCC(=O)O)NC(=O)[C@@H](NC(=O)[C@H](Cc1cnc[nH]1)NC(=O)[C@H](CCCNC(=N)N)NC(=O)[C@@H]1CCCN1C(=O)[C@@H](NC(=O)[C@H](CC(C)C)NC(=O)[C@@H](NC(=O)[C@@H]1CCCN1C(=O)[C@@H]1CCCN1C(=O)[C@@H](N)CC(C)C)C(C)C)C(C)C)[C@@H](C)O)C(=O)N1CCC[C@H]1C(=O)N[C@@H](C)C(=O)N[C@@H](CCC(=O)O)C(=O)N[C@@H](Cc1ccccc1)C(=O)N1CCC[C@H]1C(=O)N1CCC[C@H]1C(=O)N[C@@H](CC(C)C)C(=O)N[C@@H](CC(=O)O)C(=O)O` (H-LPPVLVPRHTEIPAEFPPLD-OH) are more than 100 µM and more than 100000 nM. For `CC[C@H](C)[C@H](NC(=O)[C@H](CCC(=O)O)NC(=O)[C@@H](NC(=O)[C@H](Cc1cnc[nH]1)NC(=O)[C@H](CCCNC(=N)N)NC(=O)[C@@H]1CCCN1C(=O)[C@@H](NC(=O)[C@H](CC(C)C)NC(=O)[C@@H](NC(=O)[C@@H]1CCCN1C(=O)[C@@H]1CCCN1C(=O)[C@@H](N)CC(C)C)C(C)C)C(C)C)[C@@H](C)O)C(=O)N1CCC[C@H]1C(=O)N[C@@H](C)C(=O)N[C@@H](CCC(=O)O)C(=O)N[C@@H](Cc1ccccc1)C(=O)N1CCC[C@H]1C(=O)N1CCC[C@H]1C(=O)N[C@@H](CC(C)C)C(=O)N[C@@H](CC(=O)O)C(=O)N[C@@H](CC(=O)O)C(=O)N[C@@H](Cc1ccc(O)cc1)C(=O)N[C@@H](CO)C(=O)N[C@@H](Cc1cnc[nH]1)C(=O)N[C@@H](CO)C(=O)N[C@H](C(=O)N1CCC[C@H]1C(=O)N[C@@H](CCC(=O)O)C(=O)N[C@@H](CC(N)=O)C(=O)O)[C@@H](C)CC` (H-LPPVLVPRHTEIPAEFPPLDDYSHSIPEN-OH) the same measures were more than 100 µM and more than 100000 nM.

For `CC[C@H](C)[C@H](NC(=O)[C@H](CCCCN)NC(=O)[C@H](CC(C)C)NC(=O)CNC(=O)[C@@H]1CCCN1C(=O)[C@H](CC(N)=O)NC(=O)[C@H](CCCNC(=N)N)NC(=O)[C@H](CCCCN)NC(=O)[C@H](CCCCN)NC(=O)CNC(=O)[C@H](CCCCN)NC(=O)[C@@H](N)CO)C(=O)N1CCC[C@H]1C(=O)O` (H-SKGKKRNPGLKIP-OH), the figures for the IC50 in assay [3] and in assay [2] were more than 100 µM and 2600 nM, respectively. In the case of `CC(C)C[C@H](NC(=O)[C@H](C)NC(=O)[C@H](CCCNC(=N)N)NC(=O)[C@H](C)NC(=O)[C@H](CCCCN)NC(=O)[C@H](CCCNC(=N)N)NC(=O)[C@H](CCCNC(=N)N)NC(=O)[C@H](CCCNC(=N)N)NC(=O)[C@H](CCCCN)NC(=O)[C@H](CC(C)C)NC(=O)[C@H](CC(C)C)NC(=O)[C@H](CC(C)C)NC(=O)[C@@H]1CCCN1C(=O)[C@H](CC(N)=O)NC(=O)[C@@H](N)CO)C(=O)O` (H-SNPLLLKRRRKARAL-OH), in assay [2], the 50% inhibitory concentration (IC50) turned out to be 290 nM. Consider `CC[C@H](C)[C@H](NC(=O)[C@H](Cc1c[nH]c2ccccc12)NC(=O)CNC(=O)[C@H](CC(C)C)NC(=O)[C@H](CC(C)C)NC(=O)[C@H](CCCNC(=N)N)NC(=O)[C@H](CS)NC(=O)[C@@H](NC(=O)[C@@H](NC(=O)[C@@H](NC(=O)[C@@H]1CCCN1C(=O)[C@@H]1CCCN1C(=O)[C@@H](NC(=O)[C@H](Cc1ccccc1)NC(=O)[C@@H]1CCCN1C(=O)[C@H](CC(C)C)NC(=O)[C@@H](NC(=O)[C@H](CO)NC(=O)[C@@H](N)CO)[C@@H](C)CC)[C@@H](C)O)[C@@H](C)CC)C(C)C)[C@@H](C)CC)C(=O)N[C@@H](CS)C(=O)N[C@@H](CCCCN)C(=O)NCC(=O)N[C@@H](CCC(=O)O)C(=O)O` (H-SSILPFTPPIVICRLLGWICKGE-OH), for which the figures for the IC50 in assay [3] and in assay [2] were more than 100 µM and 9000 nM, respectively.
